Results published in patent publication US20180289702A1, “LPA LEVEL REDUCTION FOR TREATING CENTRAL NERVOUS SYSTEM DISORDERS” (priority 2015, published 2018).

Assays:
[1] = system: MCAO mouse model of stroke; experiment: medial cerebral artery occlusion (MCAO) mouse model of stroke; format: in vivo, mice; details: 30 mg/kg i.p. 3 hours prior to MCAO
Description: For stroke experiments, mice were anesthetized and occlusion of the medial cerebral artery (MCAO) was performed for 30 min (assessment after 3 days) or for 1 h (assessment after 1day) by introduction of an intraluminal filament as reported (Ploen et al., 2014). […] After 1 h or after 30 min of MCAO, respectively, mice recovered and were perfused 24 hours (1 h MCAO) or 72 hours (30 min MCAO) later. Brains were extracted, snap frozen and cryosectioned using a cryotome. Mounted brain slices were Nissl-Stained which allowed to measure infarct area and to calculate total infarct volume per animal. All measurements were performed in a blinded fashion. Data was assessed for normality and statistical analysis was performed using an one-tailed t-test.

[2] = biological target: autotaxin (Homo sapiens, UniProt Q13822); details: Gierse et al., 2010; cited from earlier work
[3] = system: mice; experiment: open field locomotion of food deprived animals; format: in vivo; details: OF 10 min; controls, food deprived controls and food deprived animals treated with PF8380
[4] = system: wild type (WT) animals; experiment: mEPSC recordings with PF8380, wild type; format: cell-based, mice
[5] = system: PRG-1−/− neurons; experiment: spontaneous postsynaptic currents (sPSC) with PF8380; format: cell-based, mice; details: 1 μm
[6] = system: PRG-1R346T+/− animals; experiment: PPI in PRG-1R346T+/− knock-in mice; format: in vivo; details: monoallelic PRG-1R346T+/− animals
Description: In order to investigate whether the described human mutation indeed results in a endophenotype for psychiatric disorders, the inventors produced an knock-in mouse line where the PRG-1^R346T mutated gene was introduced in place of the PRG-1 wild-type gene. Since only monoallelic PRG-1^R346T mutation carriers were detected, PRG-1^R346T+/− animals were used for the study, which correspond to the human in-vivo situation.
Animals received a single i.p. injection 3 hours prior to PPI.

[7] = system: PRG1−/− mice; experiment: Morris water maze; format: in vivo; details: untreated and PF8380-treated PRG1−/− mice, during training days
Description: For MWM the escape latency, swim speed, path length, and trajectory of swimming were recorded for each mouse. First, mice were trained for 5 days in “visible platform” task, than for 6 days in “hidden platform” task (spatial training), followed by a “probe trial”, which was repeated for 4 times. Mice received daily 4 trials for a maximum of 90 s with an intertrial interval of 5 min. The swim velocity (mean and max) and the immobility time (time spend not searching) were measured.

[8] = system: LPA species (LPA 16:0, 18:1, 18:2); experiment: LPA species in cerebrospinal fluid (LC-ESI-MS/MS); format: in vivo; details: PRG-1 Ko mice, intraperitoneal injection
Description: LPA analysis was performed with liquid chromatography-electrospray ionization-tandem mass spectrometry (LC-ESI-MS/MS). The LC-MS/MS system consisted in a hybrid triple quadrupole-ion trap QTrap 5500 mass spectrometer (AB Sciex, Germany) equipped with a Turbo-V-source operating in negative ESI mode, an Agilent 1200 binary HPLC pump, column oven (40° C.) and degasser and an HTC Pal autosampler.
Two cycles of […] extraction of LPAs were done with 1-buthanol after adding the internal standard LPA17:0 to the sample (50 μl sample, 20 μl internal standard in 500 μl 1-butanol). The combined organic phases were dried under a gentle stream of nitrogen at 45° C. and subsequently re-dissolved in 200 μl methanol.
For the chromatographic separation a C18 column (Mercury 20×2 mm, 3 μm, 100 Å) and precolumn were used (Phenomenex, Germany). A linear gradient was employed at 400 μl/min. Mobile phase A was water with ammonium formate 50 mM and formic acid (100:0.2, v/v) and mobile phase B acetonitrile/formic acid (100:0.1, v/v), total run time 7 min, injection volume 20 μl. The mass spectrometer operated in the negative ion mode with an electrospray voltage of −4500 V at 350° C. Multiple reaction monitoring (MRM) was used for quantification. […] Quantitation was performed with Analyst Software V1.5 (Applied Biosystems) using the internal standard method with 1/concentration^2 weighting. […]

SMILES: O=C(CCN1CCN(C(=O)OCc2cc(Cl)cc(Cl)c2)CC1)c1ccc2[nH]c(=O)oc2c1 [PF8380, 4-[3-(2,3-Dihydro-2-oxo-6-benzoxazolyl)-3-oxopropyl]-1-piperazinecarboxylic acid (3,5-dichlorophenyl)methyl ester]
- infarct size ([1]; after 1 day (1 h MCAO)): significantly reduced
- infarct size ([1]; after 3 days (30 min MCAO)): significantly reduced
- potency as inhibitor of the LPA-synthetizing enzyme autotaxin [2]: nanomolar potency
- locomotion in the open field, total distance [3]: did not display significant differences
- mEPSC amplitudes [4]: did not affect
- mEPSC frequency [4]: did not affect
- sPSC amplitude [5]: not affecting
- spontaneous postsynaptic currents (sPSC) [5]: significantly reduced
- Pre Pulse Inhibition (PPI) [6]: rescue the decreased PPI to WT values
- escape latency in the Morris-Water-Maze [7]: did not change
- main LPA species (LPA 16:0, 18:1, 18:2) in CSF [8]: significant decrease
